Assay results taken from BindingDB's records for doi:10.1016/j.bmc.2015.04.057 (Beni-Suef University, 2015).

Test: Antiinflammatory activity in mouse RAW264.7 cells assessed as inhibition of LPS-induced iNOS activity incubated for 30 mins prior to LPS challenge measured after 24 hrs by Griess assay

`O=c1sc2ccccc2n1CCCN1CCN(CCCn2c(=O)sc3ccccc32)CC1` and `O=c1sc2ccccc2n1CCCCN1CCN(CCCn2c(=O)sc3ccccc32)CC1` are within 1.5-fold of each other in IC50: 4.62 µM for the first, 4.51 µM for the second.

Compared with `O=c1oc2ccccc2n1CCCCCN1CCN(CCCCCn2c(=O)oc3ccccc32)CC1`, `O=c1oc2ccccc2n1CCCCCCN1CCN(CCCCn2c(=O)oc3ccccc32)CC1` is 2.5-fold lower in IC50: 4.43 µM for the first, 1.77 µM for the second. The second is the more potent here.

`O=c1sc2ccccc2n1CCCCCN1CCN(CCCCCn2c(=O)sc3ccccc32)CC1` and `O=c1sc2ccccc2n1CCCCCCN1CCN(CCCCn2c(=O)sc3ccccc32)CC1` are within 1.5-fold of each other in IC50: 0.41 µM for the first, 0.51 µM for the second.

`O=c1oc2ccccc2n1CCCCCCN1CCN(CCCCCCn2c(=O)oc3ccccc32)CC1` and `O=c1oc2ccccc2n1CCCCCCN1CCN(CCCCCn2c(=O)oc3ccccc32)CC1` are within 1.5-fold of each other in IC50: 4.22 µM for the first, 2.9 µM for the second.

`O=c1sc2ccccc2n1CCCCCCN1CCN(CCCCCCn2c(=O)sc3ccccc32)CC1` and `O=c1sc2ccccc2n1CCCCCCN1CCN(CCCCCn2c(=O)sc3ccccc32)CC1` are within 1.5-fold of each other in IC50: 0.28 µM for the first, 0.29 µM for the second.

`O=c1oc2ccccc2n1CCCCCN1CCN(CCn2c(=O)oc3ccccc32)CC1` and `O=c1oc2ccccc2n1CCCCCCN1CCN(CCn2c(=O)oc3ccccc32)CC1` are within 1.5-fold of each other in IC50: 4.98 µM for the first, 4.66 µM for the second.

`O=c1sc2ccccc2n1CCCCCN1CCN(CCn2c(=O)sc3ccccc32)CC1` and `O=c1sc2ccccc2n1CCCCCCN1CCN(CCn2c(=O)sc3ccccc32)CC1` are within 1.5-fold of each other in IC50: 4.51 µM for the first, 3.43 µM for the second.

`O=c1oc2ccccc2n1CCCCCN1CCN(CCCn2c(=O)oc3ccccc32)CC1` and `O=c1oc2ccccc2n1CCCCCCN1CCN(CCCn2c(=O)oc3ccccc32)CC1` are within 1.5-fold of each other in IC50: 4.86 µM for the first, 4.5 µM for the second.

`O=c1sc2ccccc2n1CCCCCN1CCN(CCCn2c(=O)sc3ccccc32)CC1` and `O=c1sc2ccccc2n1CCCCCCN1CCN(CCCn2c(=O)sc3ccccc32)CC1` are within 1.5-fold of each other in IC50: 2.55 µM for the first, 2.57 µM for the second.

Going from `O=c1oc2ccccc2n1CCCCCN1CCN(CCCCn2c(=O)oc3ccccc32)CC1` to `c1ccc2oc(SCCCCN3CCN(CCCCSc4nc5ccccc5o4)CC3)nc2c1`, the IC50 falls from 4.54 µM to 1.12 µM (4.1-fold). The second is the more potent here.

With `c1ccc2sc(SCCCCN3CCN(CCCCSc4nc5ccccc5s4)CC3)nc2c1` the IC50 was 0.41 µM.
